In this assay the target is human UDG (Homo sapiens, UniProt P13051). The experiment in a line: Microscale thermophoresis (MST) binding. Details: Bacterially expressed and purified full-length human UDG; made in house. The procedure:
The data for thermophoresis was recorded at 20° C. using the blue LED at 20% and IR-Laser at 40%. The isotherm derived from the raw data and fitted according to the law of mass action. […] Then 2 μL of 10× Sypro dye and 2 μL of ddH20 (Applied biosystems cat #4461141) were added. Monitoring of fluorescence took place for 2 hr (Bioraid CFX96, Hex filter, 25-97° C., 1.6° C./2 min). Negative (−) derivative RFU raw data and plots from the machine were obtained and analyzed. […] Melting temperature (Tm) value was taken directly from the midpoint on the −dRFU/dt vs. temperature graph. Each point on the graph represents an average of three data sets. Y error bars represent the standard deviation.
Bacterially expressed and purified full-length human UDG was fluorescently labeled with Atto488 NHS ester according to the manufacturer's protocol. […] The samples were loaded into silica premium capillaries (Polymicro Technologies) after incubation at room temperature for 15 min measurements were performed at 20° C., by using 20% LED power and 40% IR-laser power. Measurements were also carried out on 40 and 60% IR-Laser power for comparison. The raw data were exported to GraphPad Prism8 software, KD value was obtained by data fitting with a one-site specific binding model.

pKd: −log10 of the molar value.

human UDG, sequence (P13051 whole entry): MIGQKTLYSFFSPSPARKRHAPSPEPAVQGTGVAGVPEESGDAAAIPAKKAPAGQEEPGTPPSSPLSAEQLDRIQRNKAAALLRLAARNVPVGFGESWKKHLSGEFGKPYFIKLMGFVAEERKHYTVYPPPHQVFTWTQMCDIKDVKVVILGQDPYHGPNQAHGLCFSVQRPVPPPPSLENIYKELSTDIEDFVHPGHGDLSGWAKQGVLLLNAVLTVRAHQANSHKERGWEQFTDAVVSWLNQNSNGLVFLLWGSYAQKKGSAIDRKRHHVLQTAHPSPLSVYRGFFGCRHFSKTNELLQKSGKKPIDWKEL

Usually pKd stands for the negative decadic logarithm of the Kd, by convention in mol/L. As to `N.N.N.O=C(O)C1=CC(=C(c2ccc(O)c(C(=O)O)c2)c2ccc(O)c(C(=O)O)c2)C=CC1=O` [ATA NH4 salt], the pKd (MST, 100 nM labelled UDG, estimated, read-out: binding dissociation constant (KD)) was > 6.15. For the same compound, the “direct binding to the purified human UDG protein” value (more soluble ATA NH4 salt form) is given as “significant improvement in direct binding”.

(Values after patent US20240156764A1, “INHIBITION OF URACIL DNA GLYCOSYLASE IN THE OPEN CONFORMATION” (CASE WESTERN RESERVE UNIVERSITY, priority 2022, published 2024).)
